Measurements as given in PubChem BioAssay (NCI).
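These data come from cells grown in 96-well plates and exposed to compound for 48 hours at five concentrations. TGI marks complete inhibition of growth.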

Tests used:
Assay in all cases: NCI-60 cell line screen, 48 h
[1] = system: 786-0 renal
[2] = system: A549 NSCLC
[3] = system: BT-549 breast
[4] = system: CAKI-1 renal
[5] = system: CCRF-CEM leukemia
[6] = system: HCC-2998 colon
[7] = system: HCT-116 colon
[8] = system: HS 578T breast
[9] = system: MCF7 breast
[10] = system: OVCAR-3 ovarian
[11] = system: PC-3 prostate
[12] = system: SF-268 CNS
[13] = system: SNB-19 CNS
[14] = system: SW-620 colon
[15] = system: TK-10 renal
[16] = system: HT29 colon
[17] = system: K-562 leukemia

CC[C@H](C)[C@H](NC(=O)N(CCC#N)CCN(CCN(C(=O)N[C@@H](Cc1ccccc1)C(=O)OC)c1ccccc1)C(=O)N[C@H](C(=O)OC)C(C)C)C(=O)OC
TGI [1]: 17.1 µM | TGI [2]: > 100 µM | TGI [3]: 44.7 µM | TGI [4]: 35.3 µM | TGI [5]: 56.1 µM | TGI [6]: 39.5 µM | TGI [7]: 36 µM | TGI [8]: 86.6 µM | TGI [9]: 74.6 µM | TGI [10]: 39.7 µM | TGI [11]: 47.7 µM | TGI [12]: 44.4 µM | TGI [13]: 35.9 µM | TGI [14]: 64.8 µM | TGI [15]: 38.5 µM

N=c1c2sc3nc4ccccc4n3c2ncn1Cc1ccccc1
TGI [1]: > 100 µM | TGI [2]: > 100 µM | TGI [3]: > 100 µM | TGI [4]: > 100 µM | TGI [5]: > 100 µM | TGI [6]: > 100 µM | TGI [7]: > 100 µM | TGI [8]: > 100 µM | TGI [9]: > 100 µM | TGI [10]: > 100 µM | TGI [11]: > 100 µM | TGI [12]: > 100 µM | TGI [13]: > 100 µM | TGI [14]: > 100 µM | TGI [15]: > 100 µM

N/C(=N\N=C\c1cc2ccccc2s1)c1cnccn1
TGI [1]: > 100 µM | TGI [2]: > 100 µM | TGI [3]: > 100 µM | TGI [4]: > 100 µM | TGI [5]: > 100 µM | TGI [7]: > 100 µM | TGI [8]: > 100 µM | TGI [16]: > 100 µM | TGI [17]: > 100 µM | TGI [9]: > 100 µM | TGI [10]: > 100 µM | TGI [11]: > 100 µM | TGI [12]: > 100 µM | TGI [13]: > 100 µM | TGI [14]: > 100 µM | TGI [15]: > 100 µM

Cc1ccc(S(=O)(=O)N(CC(O)COc2ccccc2)c2c(F)c(F)cc(F)c2F)cc1 (stereo not given)
TGI [1]: 58 µM | TGI [2]: 72.8 µM | TGI [3]: 48.7 µM | TGI [4]: 37.1 µM | TGI [5]: 93.6 µM | TGI [6]: 53.5 µM | TGI [7]: > 100 µM | TGI [8]: 50.8 µM | TGI [16]: 33.4 µM | TGI [9]: 32.7 µM | TGI [10]: 54.1 µM | TGI [11]: 45 µM | TGI [12]: 38.2 µM | TGI [13]: 82.1 µM | TGI [14]: 85 µM | TGI [15]: 84.1 µM

CCOC(=O)Oc1cc2ccsc2c2c1c1ccccc1n2C(=O)OCC
TGI [1]: > 100 µM | TGI [2]: > 100 µM | TGI [3]: > 100 µM | TGI [4]: > 100 µM | TGI [5]: > 100 µM | TGI [7]: > 100 µM | TGI [8]: > 100 µM | TGI [16]: > 100 µM | TGI [17]: > 100 µM | TGI [9]: > 100 µM | TGI [10]: > 100 µM | TGI [11]: > 100 µM | TGI [12]: > 100 µM | TGI [14]: > 100 µM | TGI [15]: > 100 µM

C/C=C1\CC(C(=O)OCC)CCCCCCC1=O (stereo not given)
TGI [1]: > 100 µM | TGI [2]: > 100 µM | TGI [3]: > 100 µM | TGI [4]: > 100 µM | TGI [5]: > 100 µM | TGI [7]: > 100 µM | TGI [8]: > 100 µM | TGI [16]: > 100 µM | TGI [9]: > 100 µM | TGI [11]: > 100 µM | TGI [12]: > 100 µM | TGI [13]: > 100 µM | TGI [14]: > 100 µM | TGI [15]: > 100 µM

Cc1cc(OCc2nc(N)nc(N)c2-c2ccc(Cl)c(Cl)c2)ccc1[N+](=O)[O-]
TGI [1]: 22.3 µM | TGI [2]: > 100 µM | TGI [3]: 12.2 µM | TGI [4]: 31.8 µM | TGI [5]: 2.27 µM | TGI [7]: 16 µM | TGI [8]: > 88.2 µM | TGI [16]: 18.1 µM | TGI [17]: > 100 µM | TGI [9]: 8.15 µM | TGI [10]: 3.29 µM | TGI [11]: 11.7 µM | TGI [12]: 36.5 µM | TGI [13]: > 55.1 µM | TGI [14]: > 63.6 µM | TGI [15]: 13.4 µM

CC(=N/NC(=S)N1CCCCCC1)/C(C)=N\NC(=S)N1CCCCCC1
TGI [1]: 9.79 µM | TGI [2]: 18.1 µM | TGI [3]: 11 µM | TGI [4]: 12.4 µM | TGI [6]: 18.6 µM | TGI [7]: > 20.8 µM | TGI [8]: 11.8 µM | TGI [16]: 7.08 µM | TGI [17]: > 100 µM | TGI [9]: > 25.1 µM | TGI [10]: 14.3 µM | TGI [11]: 23.8 µM | TGI [12]: 11.2 µM | TGI [13]: 48.1 µM | TGI [14]: 5.23 µM | TGI [15]: 8.87 µM

CC(=O)C(N1CCCCC1)C(O)(C(F)(F)F)C(F)(F)F (stereo not given)
TGI [1]: > 100 µM | TGI [2]: > 100 µM | TGI [3]: > 100 µM | TGI [4]: > 100 µM | TGI [5]: > 100 µM | TGI [6]: > 100 µM | TGI [7]: > 100 µM | TGI [8]: > 100 µM | TGI [16]: > 100 µM | TGI [17]: > 100 µM | TGI [9]: > 100 µM | TGI [10]: > 100 µM | TGI [11]: > 100 µM | TGI [13]: > 100 µM | TGI [14]: > 100 µM | TGI [15]: > 100 µM

C/C=C/CC(C(=O)OCC)(N(C)C(=O)OC(C)(C)C)S(=O)(=O)c1ccc(C)cc1 (stereo not given)
TGI [1]: > 100 µM | TGI [2]: > 100 µM | TGI [3]: > 100 µM | TGI [4]: > 100 µM | TGI [5]: > 100 µM | TGI [7]: > 100 µM | TGI [8]: > 100 µM | TGI [16]: > 100 µM | TGI [17]: > 100 µM | TGI [9]: > 100 µM | TGI [10]: > 100 µM | TGI [11]: > 100 µM | TGI [12]: > 100 µM | TGI [13]: > 100 µM | TGI [14]: > 100 µM | TGI [15]: > 100 µM

CN1C(=O)N(C)C2(CCN(CC(CC3OCCO3)c3ccc(F)cc3)CC2)C1=O (stereo not given)
TGI [1]: > 100 µM | TGI [2]: > 100 µM | TGI [3]: > 100 µM | TGI [4]: > 100 µM | TGI [5]: > 100 µM | TGI [7]: > 100 µM | TGI [8]: > 100 µM | TGI [16]: > 100 µM | TGI [17]: > 100 µM | TGI [9]: > 100 µM | TGI [10]: > 100 µM | TGI [11]: > 100 µM | TGI [12]: > 100 µM | TGI [13]: > 100 µM | TGI [15]: > 100 µM
